Patent US8329741B2, “Substituted pyrrolidine compounds with central nervous system activity” (The Research Foundation of State University of New York, priority 2007, dated 2012)
Entries after “also recorded” stand apart in the source; their conditions may differ. Structures can show the parent of a compound that is named as a salt.

Legend:
[1] = Preparation of drug solutions (dissolution in DMSO); assay type: physicochemical; settings: stock solution preparation
Description: (§1) Stock solutions of the drugs (DC1 to DC20) were dissolved in DMSO, and then diluted to 10 mg/10 mL with distilled water such that the final concentration of DMSO was 0.5%. Each animal received 10 mg/kg of the test drug in a volume of 0.1 mL per 10 g. […] These compounds were sonicated for 30 minutes in DMSO, acidified to pH 4 to 5 by drop-wise addition of 1M HCl, and then suspended in 20% cyclodextrin solution.

chakragati (ckr) mice = assay: Screening of candidate compounds based on motor activity in ckr mice; assay type: in vivo, mouse; settings: for overall biological activity: based on receptor binding data and ckr mouse screening data (FIGS. 1 and 2, ANOVA)
Description: To test the effect of compounds, including compounds of the present invention, on CNS function, chakragati (ckr) mice were used as a model. The DC series compounds were tested on motor activity and PPI in ckr mice.
as §1
Twenty ckr mice (male and female, 3 months old) were randomly assigned to receive test drugs or 0.5% DMSO vehicle. Each drug was tested in 5 mice. Each mouse received up to 5 randomly assigned drugs in random order. Each treatment was separated by a minimum washout period of 3 days. On the day of testing, mice were brought into the behavioral test room and allowed to acclimatize for at least 1 hour. They then received intraperitoneal injections of the 0.1 mL/10 g (10 mg/kg) of the test drug solutions or vehicle.
They were returned to their cage and 20 minutes later they were placed in a 190 mm diameter, 300 mm deep circular recording chamber. Four mice were tested simultaneous in 4 separate chambers. Between each testing session the chambers were wiped down with 70% ethanol and allowed to dry for at least 10 minutes The mice were monitored with an overhead video camera for 15 min. Their behavior was videotaped and simultaneously digitized and tracked (Ethovision Version 2, Noldus). The total distance moved, the velocity of movement, and the time spent moving were calculated.
The data for each parameter were separately analyzed by one-way ANOVA (Analysis of Variance) and post hoc Dunnett's comparisons with the vehicle-treated control group. Tukey's HSD test was applied for post hoc comparisons between groups. p<0.05 was considered statistically significant.

5-HT transport sites = target: T1, 5-HT transport sites (Rattus norvegicus, UniProt P31652); assay: Displacement of [3H]paroxetine binding in membranes from rat frontal cortex
T1 construct: striatum and frontal cortex dissected from frozen Sprague-Dawley rat brains (Pel-Freez, Rogers, Ark.); tissue Pel-Freez, Rogers, Ark; host or cells: rat frontal cortex membranes (Sprague-Dawley rat brain)
T1 sequence (P31652 whole entry): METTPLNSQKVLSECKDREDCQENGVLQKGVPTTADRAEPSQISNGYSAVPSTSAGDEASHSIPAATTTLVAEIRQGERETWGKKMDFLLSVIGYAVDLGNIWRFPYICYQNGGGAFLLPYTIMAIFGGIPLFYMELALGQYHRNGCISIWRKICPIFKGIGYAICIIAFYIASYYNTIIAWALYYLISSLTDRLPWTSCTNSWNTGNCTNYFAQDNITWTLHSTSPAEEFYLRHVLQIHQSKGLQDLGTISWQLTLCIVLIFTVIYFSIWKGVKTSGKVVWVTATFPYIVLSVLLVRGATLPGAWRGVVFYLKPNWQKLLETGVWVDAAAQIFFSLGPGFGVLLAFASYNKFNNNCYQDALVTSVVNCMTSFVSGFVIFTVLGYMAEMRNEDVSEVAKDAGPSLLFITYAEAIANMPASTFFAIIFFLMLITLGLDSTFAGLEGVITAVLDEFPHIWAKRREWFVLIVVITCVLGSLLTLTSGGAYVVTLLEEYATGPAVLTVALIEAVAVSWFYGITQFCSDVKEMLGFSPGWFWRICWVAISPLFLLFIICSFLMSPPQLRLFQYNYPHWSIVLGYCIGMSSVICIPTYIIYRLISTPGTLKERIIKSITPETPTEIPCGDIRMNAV
Description: Binding of substituted pyrrolidine compounds at biogenic amine transporters was determined using striatum and frontal cortex dissected from frozen Sprague-Dawley rat brains (Pel-Freez, Rogers, Ark.). Affinities of the compounds at dopamine (DA) transport sites were determined by displacement of [^125I] 3 beta-(4-iodophenyl)tropan-2 beta-carboxylic acid methyl ester (RTI-55) binding in membranes from rat striatum, using 0.5 mg (original wet weight) of membranes and 10 pM [^125I]RTI-55. Non-specific binding was determined in the presence of 1 μM 2β-propanoyl-3β-(2-naphthyl) tropane (WF-23). Affinities of the compounds at 5-HT transport sites were determined by displacement of [^3H]paroxetine binding in membranes from rat frontal cortex, using 50 mg (original wet weight) of membranes and 0.4 nM [^3H]paroxetine. Non-specific binding was determined in the presence of 10 μM fluoxetine. Binding of the compounds at norepinephrine (NE) transport sites was determined by displacement of [^3H]nisoxetine binding in membranes from rat forebrain, using 0.7 nM [^3H]nisoxetine. Non-specific binding was determined in the presence of 1 μM desipramine.
Potencies in FIGS. 3 and 4 were calculated from displacement curves using 7-10 concentrations of unlabeled compounds, as analyzed by non-linear curve fitting. […]

ckr mouse = assay: Validation of ckr mouse model with antipsychotics (hyperactivity and circling); assay type: in vivo; settings: concentrations relevant to human clinical use
Source text: The ckr mouse was serendipitously created as a result of a transgenic insertional mutation. […] The ckr mouse also appears to show reduced social interactions resembling the social withdrawal that is part of the constellation of negative symptoms of schizophrenia. The mouse also presents lateral ventricular enlargement, which may mirror neuropathological observations in schizophrenia.
The model has been further validated by testing risperidone, haloperidol and pimozide in the ckr mouse. The behavioral output was assayed by measuring the rate of hyperactivity and circling after administration. […] Based on the foregoing, the ckr mouse model is considered to be valid for evaluation of compounds for use in reducing the symptoms of neuropsychiatric disorders in mammals, including humans.

In the case of COC(=O)[C@H](c1ccc2ccccc2c1)[C@@H]1C[C@@H](OC)CN1 [DC16, (R)-methyl 2-((2S,4R)-4-methoxypyrrolidin-2-yl)-2-(naphthalen-2-yl)acetate hydrochloride], the “solubility in DMSO alone” value [1] is reported as “difficult to dissolve in DMSO alone”, the overall biological activity (chakragati (ckr) mice; hydrochloride) is reported as “has biological activity; also recorded: favorable biological activity” and the total distance moved (chakragati (ckr) mice; ckr mice, 10 mg/kg intraperitoneal, 20 minutes after injection, monitored 15 min, vs vehicle (FIG. 1a)) is reported as “trend towards decreased”. For the same compound, the velocity of movement (chakragati (ckr) mice; ckr mice, 10 mg/kg intraperitoneal, 20 minutes after injection, monitored 15 min, vs vehicle (FIG. 1b)) was “trend towards decreased” and the time spent moving (chakragati (ckr) mice; ckr mice, 10 mg/kg intraperitoneal, 20 minutes after injection, monitored 15 min, vs vehicle (FIG. 1c)) was “trend towards a decrease”.

For COC(=O)[C@H](c1ccc(Cl)c(Cl)c1)[C@@H]1C[C@@H](O)CN1 [DC-17, (R)-methyl 2-(3,4-dichlorophenyl)-2-((2S,4R)-4-hydroxypyrrolidin-2-yl)acetate hydrochloride], the overall biological activity (chakragati (ckr) mice) was “favorable biological activity”.

For COC(=O)[C@H](c1ccc2ccccc2c1)[C@@H]1C[C@@H](O)CN1.Cl [HDMP-80, (R)-methyl 2-((2S,4R)-4-hydroxypyrrolidin-2-yl)-2-(naphthalen-2-yl)acetate hydrochloride], the “binding affinity for the serotonin transporter” value (5-HT transport sites) was “high binding affinity”.

With O=C(CCCN1CCC(O)(c2ccc(Cl)cc2)CC1)c1ccc(F)cc1 [haloperidol] the “hyperactivity in ckr mice” value (ckr mouse) was “dose-dependent attenuation”.

In the case of Cc1nc2n(c(=O)c1CCN1CCC(c3noc4cc(F)ccc34)CC1)CCCC2 [risperidone], the “hyperactivity in ckr mice” value (ckr mouse) is reported as “dose-dependent attenuation”.
